We go through five molecules from ChEMBL document CHEMBL3596163, “Discovery of imidazo[1,5-a]pyridines and -pyrimidines as potent and selective RORc inverse agonists” (Bioorg Med Chem Lett, 2015).

≈ marks a conversion by molar mass, not a printed value. A value given as a limit tells only on which side of the number the result lay.

Series [1] deals with T1, Peroxisome proliferator-activated receptor gamma (Homo sapiens, UniProt P37231).
T1 sequence (P37231 whole entry): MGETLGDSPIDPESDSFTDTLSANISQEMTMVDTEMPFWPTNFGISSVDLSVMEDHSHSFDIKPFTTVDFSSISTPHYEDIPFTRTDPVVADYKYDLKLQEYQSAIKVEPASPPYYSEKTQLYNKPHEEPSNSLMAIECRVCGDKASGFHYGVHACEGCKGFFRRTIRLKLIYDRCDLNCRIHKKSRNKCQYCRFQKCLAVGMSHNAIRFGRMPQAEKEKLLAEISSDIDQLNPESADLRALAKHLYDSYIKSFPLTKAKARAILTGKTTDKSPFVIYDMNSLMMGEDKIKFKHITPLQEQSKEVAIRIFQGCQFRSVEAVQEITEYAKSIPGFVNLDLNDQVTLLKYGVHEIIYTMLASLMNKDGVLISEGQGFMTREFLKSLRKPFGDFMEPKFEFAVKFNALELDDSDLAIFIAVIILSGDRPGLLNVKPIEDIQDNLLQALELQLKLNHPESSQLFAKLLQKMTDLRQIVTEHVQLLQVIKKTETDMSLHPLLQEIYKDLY
Nature of the series: Displacement of fluormone PPARgamma green from GST-tagged human PPARgamma-LBD after 2 hrs by fluorescence polarization assay.

The nature of series [2]: Apparent permeability from basolateral to apical side in MDCK cells at 2 uM by LC-MS/MS analysis. The class given is ADME, cell-based, Canis lupus familiaris. Conditions: dog.
A short description of series [3]: Plasma protein binding in rat at 5 uM after 4 hrs by equilibrium dialysis method. Format: ADME, cell-free. Particulars: read-out: PPB.
Series [4] can be described thus: Apparent permeability from apical to basolateral side in MDCK cells at 2 uM by LC-MS/MS analysis. Format: ADME, cell-based, Canis lupus familiaris. Particulars: dog.
Series [5] in a line: Plasma protein binding in human at 5 uM after 4 hrs by equilibrium dialysis method. Conditions: read-out: PPB. The class given is ADME, cell-free.
Series [6] in a line: Kinetic aqueous solubility of the compound in PBS buffer at 23 degC after 24 hrs by LC/CLND analysis. Format: physicochemical. Conditions: read-out: Kinetic_solubility.
The next series has as its system MDCK. Description: Efflux ratio of apparent permeability from apical to basolateral side over basolateral to apical side in MDCK cells at 2 uM by LC-MS/MS analysis. Conditions: dog. Format: ADME, cell-based, Canis lupus familiaris.
The nature of series [7]: Plasma clearance in Sprague-Dawley rat at 0.5 mg/kg, iv. The class given is ADME, organism-based.
Series [8] is described as follows: Cmax in Sprague-Dawley rat at […], po. The class given is ADME, organism-based. The arrangement: dose 1.5 mg/kg, route oral. Particulars: in vivo.
Series [9] in a line: Volume of distribution in Sprague-Dawley rat at 0.5 mg/kg, iv. The class given is ADME, organism-based. Conditions: in vivo.
The nature of series [10]: Half life in Sprague-Dawley rat at 0.5 mg/kg, iv. The class given is ADME, organism-based. Particulars: in vivo.
Series [11] in a line: AUC in Sprague-Dawley rat at […], po. The class given is ADME, organism-based. Particulars: in vivo.
Series [12] in a line: Oral bioavailability in Sprague-Dawley rat at […]. The class given is ADME, organism-based. Particulars: in vivo.

Molecule `O=C(O)c1ccc(-c2nc(C(=O)c3c(Cl)cccc3C3CC3)n3c2CCCC3)c(F)c1` showed an IC50 in series [1] of 1300 nM.

The molecule `O=C(O)c1ccc(-c2nc(C(=O)c3c(Cl)cccc3C(F)(F)F)n3c2CCCC3)c(F)c1` registered a half-maximal inhibitory concentration (IC50) in series [1] of 760 nM.

`O=C(O)c1ccc(-c2nc(C(=O)c3c(Cl)cccc3C(F)(F)F)n3ccccc23)c(F)c1` gave an IC50 in series [1] of 320 nM.

For the molecule `O=C(O)c1ccc(-c2nc(C(=O)c3c(Cl)cccc3C3CC3)n3cccnc23)cc1O`, in [2], the Papp B→A at 2 µM came to 15 ×10⁻⁶ cm/s. The fraction unbound at 4 h, 5 µM in [3] and in series [5] was 0.01 each time. Besides, the Papp A→B at 2 µM in series [4] was 8 ×10⁻⁶ cm/s. In addition, the solubility kinetic at 24 h in series [6] was 45 µM (≈ 19.5 µg/mL). In addition, in series [1], the IC50 stood at 3400 nM. The Ratio with MDCK was under 2.

`O=C(O)c1ccc(-c2nc(C(=O)c3c(Cl)cccc3C(F)(F)F)n3ccccc23)cc1O` yielded a clearance in series [7] of 130 mL/min/kg. Besides, the Papp B→A at 2 µM in [2] came out at 10 ×10⁻⁶ cm/s. This molecule yielded a Cmax in [8] of 70 nM. Also, the Vd in series [9] came out at 1.2 L/kg. The fraction unbound at 4 h, 5 µM in [3] and in [5] was under 0.01 each time. The molecule also showed a half-life in series [10] of 12 min. Moreover, in series [4], the Papp A→B at 2 µM amounted to 12 ×10⁻⁶ cm/s. The solubility kinetic at 24 h in series [6] was 86 µM (≈ 39.6 µg/mL). This molecule gave an AUC in series [11] of 0.25 µM·h. The molecule also came in with an IC50 in [1] of 650 nM. Moreover, in [12], the bioavailability amounted to 40%. Also, in the series on MDCK, the Ratio is under 2.
